Data reported in article PMC7435819, “Towards the Inhibition of Protein–Protein Interactions (PPIs) in STAT3: Insights into a New Class of Benzothiadiazole Derivatives” (Molecules, 2020).
Read-outs that look alike come from different tables or passages of the source.

Columns and labels:
[1] = target: T1, STAT3 Cys712A (Homo sapiens, UniProt P40763, C712A); experiment: AlphaScreen-based assay, STAT3 single-cysteine mutant Cys712A; type: binding; conditions: for % of control, STAT3 AlphaScreen: Cys712A
T1 construct: made in house
T1 sequence (P40763 whole entry C712A): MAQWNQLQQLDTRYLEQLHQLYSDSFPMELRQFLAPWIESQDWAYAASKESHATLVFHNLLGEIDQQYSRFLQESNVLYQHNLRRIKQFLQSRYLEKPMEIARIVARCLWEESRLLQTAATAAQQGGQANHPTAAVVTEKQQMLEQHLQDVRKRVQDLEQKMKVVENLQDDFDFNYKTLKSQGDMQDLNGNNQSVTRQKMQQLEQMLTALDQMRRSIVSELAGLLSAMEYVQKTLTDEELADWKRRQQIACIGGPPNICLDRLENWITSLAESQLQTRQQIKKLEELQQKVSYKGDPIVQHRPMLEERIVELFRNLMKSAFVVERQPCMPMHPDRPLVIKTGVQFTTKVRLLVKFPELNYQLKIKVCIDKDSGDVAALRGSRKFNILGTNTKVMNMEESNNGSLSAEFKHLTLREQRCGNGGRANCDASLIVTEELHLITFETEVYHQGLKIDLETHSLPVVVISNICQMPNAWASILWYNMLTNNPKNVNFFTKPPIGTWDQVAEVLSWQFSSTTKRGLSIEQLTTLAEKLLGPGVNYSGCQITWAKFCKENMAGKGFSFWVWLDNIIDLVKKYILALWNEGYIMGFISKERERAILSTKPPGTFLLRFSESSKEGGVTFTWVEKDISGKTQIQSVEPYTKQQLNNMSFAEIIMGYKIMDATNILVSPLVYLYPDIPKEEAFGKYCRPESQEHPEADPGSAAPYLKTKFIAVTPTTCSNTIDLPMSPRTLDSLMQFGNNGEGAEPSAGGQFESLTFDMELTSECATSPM
Protocol: (§1) Furthermore, to gain insight into the activity of compound 1, its interaction with the cysteine residues located in the vicinities of the SH2 domain (Figure 3) was investigated and evaluated by an AlphaScreen-based assay using different mutants (Table 3).
(§2) The same procedure was used to evaluate compound 1 activity versus STAT3 single-cysteine-residue mutants (Cys468A, Cys542A, Cys550A, Cys687A, and Cys712A). Briefly, 3 µL of compound 1 in DMSO (at 0.3, 1, 3, 10 and 30 µM concentration) were premixed with 1 µL of L-Cys in PBS and 16 µL of an AlphaScreen buffer. Then, the mixture was immediately (<5 min) mixed with the STAT3 mutant solution before adding the FITC-peptide.

[2] = target: T2, STAT3 Cys468A (Homo sapiens, UniProt P40763, C468A); experiment: AlphaScreen-based assay, STAT3 single-cysteine mutant Cys468A; type: binding; conditions: for % of control, STAT3 AlphaScreen: Cys468A
T2 construct: a truncated form of STAT3 (136-705) was constructed and chromatographically purified; made in house
T2 sequence (P40763 136-705 C468A): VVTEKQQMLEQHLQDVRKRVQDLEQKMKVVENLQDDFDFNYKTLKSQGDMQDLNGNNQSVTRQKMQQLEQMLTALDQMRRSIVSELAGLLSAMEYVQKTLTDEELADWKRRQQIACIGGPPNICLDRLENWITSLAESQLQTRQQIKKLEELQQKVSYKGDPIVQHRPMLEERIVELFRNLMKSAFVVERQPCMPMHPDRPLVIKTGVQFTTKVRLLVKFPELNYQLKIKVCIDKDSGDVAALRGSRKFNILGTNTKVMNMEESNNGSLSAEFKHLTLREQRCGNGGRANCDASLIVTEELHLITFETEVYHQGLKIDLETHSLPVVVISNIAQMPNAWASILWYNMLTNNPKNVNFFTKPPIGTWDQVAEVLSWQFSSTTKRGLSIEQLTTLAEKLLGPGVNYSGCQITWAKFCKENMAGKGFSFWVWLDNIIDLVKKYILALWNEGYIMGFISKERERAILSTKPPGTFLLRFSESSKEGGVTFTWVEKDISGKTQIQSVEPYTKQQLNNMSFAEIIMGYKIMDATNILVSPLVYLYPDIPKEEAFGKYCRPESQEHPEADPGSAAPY
Protocol: as §1, §2

[3] = target: Grb2 (Homo sapiens, UniProt P62993); experiment: AlphaScreen-based assay, Grb2 (other SH2 domain-containing protein); type: binding; conditions: 30 µM
Protocol: (§3) AlphaScreen is an in vitro competitive binding test used to identify compounds that are able to inhibit the binding of proteins containing an SH2 domain to their corresponding phosphopeptides (5-carboxyfluorescein (FITC)-GpYLPQTV for STAT3 and FITC-GpYDKPHVL for STAT1) (Table 2).
(§4) Firstly, 75 nM of each SH2-containing protein were incubated with the test compound (at the following concentrations: 1, 3, 10, and 30 µM) for 15 min. Each protein sample was then incubated for 90 min with 50 nM of its corresponding FITC-pTyr peptide and simultaneously mixed with streptavidin-coated donor beads and anti-FITC acceptor beads before detection at 570 nm using EnVison Xcite (PerkinElmer, Waltham, MA, USA).

[4] = target: T3, STAT1 (Homo sapiens, UniProt P42224); experiment: AlphaScreen-based competitive binding assay, STAT1 vs FITC-GpYDKPHVL; conditions: read-out: STAT1 inhibition: IC50
T3 sequence (P42224 1-750): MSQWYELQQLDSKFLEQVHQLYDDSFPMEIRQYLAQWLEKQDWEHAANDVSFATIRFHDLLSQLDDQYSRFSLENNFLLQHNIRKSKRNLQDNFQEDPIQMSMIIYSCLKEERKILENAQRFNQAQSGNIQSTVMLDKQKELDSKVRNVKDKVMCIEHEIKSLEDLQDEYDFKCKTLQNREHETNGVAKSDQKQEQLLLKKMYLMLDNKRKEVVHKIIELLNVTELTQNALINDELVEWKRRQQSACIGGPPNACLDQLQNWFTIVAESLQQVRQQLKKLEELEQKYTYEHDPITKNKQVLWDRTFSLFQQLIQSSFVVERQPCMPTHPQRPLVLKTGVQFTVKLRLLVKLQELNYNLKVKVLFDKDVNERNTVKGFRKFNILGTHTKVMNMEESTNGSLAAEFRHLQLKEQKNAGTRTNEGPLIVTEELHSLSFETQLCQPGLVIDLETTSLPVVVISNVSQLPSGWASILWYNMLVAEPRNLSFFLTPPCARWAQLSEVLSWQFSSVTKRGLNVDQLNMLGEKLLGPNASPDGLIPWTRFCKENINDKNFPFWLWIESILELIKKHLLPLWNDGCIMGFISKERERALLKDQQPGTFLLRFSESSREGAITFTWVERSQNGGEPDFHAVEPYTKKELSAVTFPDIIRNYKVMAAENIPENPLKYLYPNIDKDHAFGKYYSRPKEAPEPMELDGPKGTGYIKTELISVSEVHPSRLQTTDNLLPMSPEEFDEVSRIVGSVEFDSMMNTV
Description: as §3
AlphaScreen is a bead-based non-radioactive assay system for the detection of biomolecular interactions in a microtiter plate format. The binding of biological partners brings donor and acceptor beads into close proximity and, as a result, a fluorescent signal between 520 and 620 nm was produced. The AlphaScreen-based assays were performed in a final reaction volume of 25 μL of the assay buffer containing 10 mM HEPES–NaOH (pH 7.4), 50 mM NaCl, 1 mM EDTA (pH 8.0), 0.1% NP-40, and 10 ng/μL bovine serum albumin (BSA) in a 96-well microtiter plate at 25 °C. The pTyr peptide probes used in this study were 5-carboxyfluorescein (FITC)-GpYLPQTV for STAT3 and (FITC)-GpYDKPHVL for STAT1. Plasmid construction and protein expression were performed as previously described; the experimental method is briefly summarized as follows. Considering that the expression of the full-length protein is troublesome, a truncated form of STAT3 (136-705) was constructed and chromatographically purified (AKTA FPLC system; GE Healthcare Bio-Sciences, Piscataway, NJ, USA). […]

[5] = target: T4, STAT3 Cys687A (Homo sapiens, UniProt P40763, C687A); experiment: AlphaScreen-based assay, STAT3 single-cysteine mutant Cys687A; type: binding; conditions: for % of control, STAT3 AlphaScreen: Cys687A
T4 construct: a truncated form of STAT3 (136-705) was constructed and chromatographically purified; made in house
T4 sequence (P40763 136-705 C687A): as the sequence (P40763 136-705 C468A) above, with A333C, C552A counted along it
Protocol: as §1, §2

[6] = target: T5, STAT3 (Homo sapiens, UniProt P40763); experiment: AlphaScreen-based competitive binding assay, STAT3 SH2 domain vs FITC-GpYLPQTV; conditions: for % of control, STAT3 AlphaScreen: WT
T5 construct: a truncated form of STAT3 (136-705) was constructed and chromatographically purified; made in house
T5 sequence (P40763 136-705): as the sequence (P40763 136-705 C468A) above, with A333C counted along it
Description: as §3
AlphaScreen is a bead-based non-radioactive assay system for the detection of biomolecular interactions in a microtiter plate format. The binding of biological partners brings donor and acceptor beads into close proximity and, as a result, a fluorescent signal between 520 and 620 nm was produced. The AlphaScreen-based assays were performed in a final reaction volume of 25 μL of the assay buffer containing 10 mM HEPES–NaOH (pH 7.4), 50 mM NaCl, 1 mM EDTA (pH 8.0), 0.1% NP-40, and 10 ng/μL bovine serum albumin (BSA) in a 96-well microtiter plate at 25 °C. The pTyr peptide probes used in this study were 5-carboxyfluorescein (FITC)-GpYLPQTV for STAT3 and (FITC)-GpYDKPHVL for STAT1. Plasmid construction and protein expression were performed as previously described; the experimental method is briefly summarized as follows. Considering that the expression of the full-length protein is troublesome, a truncated form of STAT3 (136-705) was constructed and chromatographically purified (AKTA FPLC system; GE Healthcare Bio-Sciences, Piscataway, NJ, USA). The soluble STAT3 fraction was loaded on a HisTrap™ column (GE Healthcare Bio-Sciences) and eluted with an imidazole gradient (50 mM Tris–HCl pH 7.4, 300 mM NaCl, 0.2 mM EDTA, 0.1% (w/v) NP-40, 5 mM β-mercaptoethanol, 10% (v/v) glycerol, and 10–300 mM imidazole). An SDS-PAGE stained with Coomassie Brilliant Blue (CBB) was performed to check the purity of the protein (see Figure S71). Subsequently, the protein was dialyzed (10 mM HEPES-NaOH pH 7.4, 50 mM NaCl, 10 mM β-mercaptoethanol, 0.1 mM EGTA, 0.02% (w/v) NP-40, 0.2 mM phenylmethylsulphonyl fluoride (PMSF), and 10% (v/v) glycerol).
as §4

[7] = set-up: method as in doi:10.1039/P29840001851; conditions: cited from earlier work
[8] = target: T6, STAT3 Cys550A (Homo sapiens, UniProt P40763, C550A); experiment: AlphaScreen-based assay, STAT3 single-cysteine mutant Cys550A; type: binding; conditions: for % of control, STAT3 AlphaScreen: Cys550A
T6 construct: a truncated form of STAT3 (136-705) was constructed and chromatographically purified; made in house
T6 sequence (P40763 136-705 C550A): as the sequence (P40763 136-705 C468A) above, with A333C, C415A counted along it
Protocol: as §1, §2

[9] = target: T7, STAT3 Cys542A (Homo sapiens, UniProt P40763, C542A); experiment: AlphaScreen-based assay, STAT3 single-cysteine mutant Cys542A; type: binding; conditions: for % of control, STAT3 AlphaScreen: Cys542A
T7 construct: a truncated form of STAT3 (136-705) was constructed and chromatographically purified; made in house
T7 sequence (P40763 136-705 C542A): as the sequence (P40763 136-705 C468A) above, with A333C, C407A counted along it
Protocol: as §1, §2

- % of control, STAT3 AlphaScreen ([1]; [1] 1 μM): 113.4 % of control
- % of control, STAT3 AlphaScreen ([1]; [1] 3 μM): 112.4 % of control
- % of control, STAT3 AlphaScreen ([1]; [1] 10 μM): 110.5 % of control
- % of control, STAT3 AlphaScreen ([1]; [1] 30 μM): 108.0 % of control
- IC50 ([1]; mutated Cys712A): > 30 µM
- % of control, STAT3 AlphaScreen ([2]; [1] 1 μM): 111.8 % of control
- % of control, STAT3 AlphaScreen ([2]; [1] 3 μM): 108.3 % of control
- % of control, STAT3 AlphaScreen ([2]; [1] 10 μM): 101.1 % of control
- % of control, STAT3 AlphaScreen ([2]; [1] 30 μM): 79.7 % of control
- IC50 ([2]; mutated Cys468A): > 30 µM
- inhibition versus Grb2 [3]: 23%
- IC50 [4]: > 50 µM
- % of control, STAT3 AlphaScreen ([5]; [1] 1 μM): 93.3 % of control
- % of control, STAT3 AlphaScreen ([5]; [1] 3 μM): 89.7 % of control
- % of control, STAT3 AlphaScreen ([5]; [1] 10 μM): 78.3 % of control
- % of control, STAT3 AlphaScreen ([5]; [1] 30 μM): 51.9 % of control
- IC50 ([5]; mutated Cys687A): > 30 µM
- inhibition at 30 µM ([6]; 30 µM, n.a.: not active, read-out: STAT3 % Inhibition (30 µM)): 96.5 ± 1.1%
- IC50 ([6]; STAT3 wild-type (WT), read-out: STAT3 inhibition: IC50): 15.8 µM
- inhibition at 30 µM ([6]; Table 1, AlphaScreen-based assay at 30 µM, STAT3-SH2 domain, read-out: % Inhibition): 96.5%
- % of control, STAT3 AlphaScreen ([6]; [1] 1 μM): 98.6 % of control
- % of control, STAT3 AlphaScreen ([6]; [1] 3 μM): 94.1 % of control
- % of control, STAT3 AlphaScreen ([6]; [1] 10 μM): 72.4 % of control
- % of control, STAT3 AlphaScreen ([6]; [1] 30 μM): 18.4 % of control
- % of control, STAT3 AlphaScreen ([8]; [1] 1 μM): 132.9 % of control
- % of control, STAT3 AlphaScreen ([8]; [1] 3 μM): 136.0 % of control
- % of control, STAT3 AlphaScreen ([8]; [1] 10 μM): 135.2 % of control
- % of control, STAT3 AlphaScreen ([8]; [1] 30 μM): 124.7 % of control
- IC50 ([8]; mutated Cys550A): > 30 µM
- % of control, STAT3 AlphaScreen ([9]; [1] 1 μM): 102.5 % of control
- % of control, STAT3 AlphaScreen ([9]; [1] 3 μM): 101.3 % of control
- % of control, STAT3 AlphaScreen ([9]; [1] 10 μM): 98.1 % of control
- % of control, STAT3 AlphaScreen ([9]; [1] 30 μM): 92.3 % of control
- IC50 ([9]; mutated Cys542A): > 30 µM
- melting point: 148 °C
SMILES: Cc1cc2c(cc1C)NS(=O)(=O)N2 [Compound 1, 5,6-Dimethyl-1H,3H-2,1,3-benzothiadiazole-2,2-dioxide]
- pKa [7]: 6.88 ± 0.03
